According to ChEMBL document CHEMBL1287705, “Design and synthesis of threading intercalators to target DNA” (Bioorg Med Chem Lett, 2010):

Columns and labels:
Calf thymus DNA = experiment: Displacement of ethidium bromide from calf thymus DNA by fluorometric assay; assay type: nucleic-acid assay; conditions: Bos taurus
HL-60 [1] = experiment: Growth inhibition of human HL60 cells; assay type: functional
HL-60 [2] = experiment: Cytotoxicity against human HL60 cells by MTS assay; assay type: functional, cell-based

Structure (SMILES) | IC50 (HL-60 [2]) | also measured
Nc1c2ccccc2nc2ccccc12 [AMINACRINE] | – | Kapp (Calf thymus DNA): 1.8 ×10⁶ /M; logKA (Calf thymus DNA): 6.26; GI50 (HL-60 [1]): 2 µM
CN(C)CCNC(=O)c1cccc2c(NCCCCCCN)c3ccccc3nc12 | 0.45 µM | Kapp (Calf thymus DNA): 3.1 ×10⁷ /M
CN(C)CCNC(=O)c1ccc2c(NCCCCCCNC(=O)c3cccc4ccccc34)c3ccccc3nc2c1 | 58.9 µM | –
CN(C)CCNC(=O)c1ccc2c(NCCCCCCNC(=O)c3ccc4ccccc4n3)c3ccccc3nc2c1 | 30.7 µM | –
CN(C)CCNC(=O)c1ccc2c(NCCCCCCNS(=O)(=O)c3cccc4cccnc34)c3ccccc3nc2c1 | 35.8 µM | –
CN(C)CCNC(=O)c1ccc2c(NCCCCCCN)c3ccccc3nc2c1 | 38.3 µM | Kapp (Calf thymus DNA): 9.83 ×10⁶ /M
CN(C)CCNC(=O)c1cccc2c(NCCCCCCNS(=O)(=O)c3cccc4c(N(C)C)cccc34)c3ccccc3nc12 | 2.1 µM | –
CN(C)CCNC(=O)c1cccc2c(NCCCCCCNS(=O)(=O)c3cccc4cccnc34)c3ccccc3nc12 | 16 µM | –
CN(C)CCNC(=O)c1cccc2c(NCCCCCCNC(=O)c3ccc4ccccc4n3)c3ccccc3nc12 | 22.6 µM | –
CN(C)CCNC(=O)c1ccc2c(NCCCCCCNS(=O)(=O)c3cccc4c(N(C)C)cccc34)c3ccccc3nc2c1 | 26.7 µM | –
CN(C)CCNC(=O)c1cccc2c(NCCCCCCNC(=O)c3cccc4ccccc34)c3ccccc3nc12 | 3.5 µM | –
